According to patent US11414663B2, “Micro-RNA profiling, compositions, and methods of treating diseases” (GOWEY RESEARCH GROUP, PLLC, priority 2010, dated 2022):

The molecules below were run on miRNA (assay: Pre and post microRNA profiles of patients after spine injections of rate limiters). Conditions: spine injections in patients; pre vs post miRNA profiles.
Format: in vivo, human
`N[C@@H](CS)C(=O)O` [Cysteine] was tested, and the “Impact on genome using spine injections” value was “Increases ail miRNA”. `N[C@@H](CCC(=O)N[C@@H](CS)C(=O)NCC(=O)O)C(=O)O` [Glutathione] was tested, and the “Impact on genome using spine injections” value was “Decrease all miRNA”. For `[Mg+2]` [Magnesium], the “Impact on genome using spine injections” value was “Increases all miRNA”. In the case of `[Zn]` [Zinc], the “Impact on genome using spine injections” value was “Decrease all miRNA except miR-486”. `[Se]` [Selenium] was tested, and the “Impact on genome using spine injections” value was “Increases ail miRNA”.

Same assay, conditions: spine injections; all other miRNA levels lowered
For `[Zn]` [Zinc], the “miR-486 level, pre-treatment vs post-treatment profile” value was “miR-486 had increased”.
